Several values for one entry are separate records, joined by “and”; a condition that tells them apart may be missing. Equal values may be shown once.
Assays:
[1] = host hepatocyte viability in the P. cynomolgi assay; type: cell-based, rhesus; details: rhesus monkey; radical cure mode; read-out: cytotoxicity CC50
Protocol: The liver-stage P. cynomolgi assay was designed to identify anti-hypnozoite drugs utilizing a 384-well in vitro culture system[31],[37]. Briefly, cryopreserved primary simian hepatocytes (donor lots XGB, OQB, and QHO: BioIVT, Inc.) were seeded in collagen-coated 384-well plates and infected with P. cynomolgi bastianellii (B strain) sporozoites dissected from infected Anopheles dirus mosquitoes. Test compounds were solubilized in 100% DMSO and serially diluted 2-fold to generate up to a 12-point dose-response curve, maintaining a final DMSO concentration of 0.1% across all wells. Two distinct treatment modes were evaluated. For the prophylactic assay, to assess the prevention of infection, compound exposure began 1-hour post-infection with daily media changes on Days 1 and 2. For the radical cure assay, to assess activity against established liver forms, drugs were administered daily from Day 4 through Day 7 post-infection. […] For readout on Day 8, plates were fixed and stained via immunofluorescence to visualize parasite forms (hypnozoites and schizonts) and hepatocyte nuclei, and images were acquired using an Operetta CLS high-content imaging system (PerkinElmer). Host hepatocyte viability was measured in parallel to determine compound toxicity. Parasite forms were automatically quantified using Harmony 4.9 software, and percent inhibition and toxicity were calculated relative to in-plate DMSO vehicle controls. IC50 and CC50 (half-maximal cytotoxic concentrations) were determined by fitting dose-response data to a four-parameter logistic (variable slope) model using a custom Python script incorporating a grid search algorithm.

[2] = cytotoxicity against HepG2 cells; type: cell-based; details: human, HepG2 cells; read-out: inhibition IC50 vs HepG2
Protocol: Cytotoxicity was evaluated in human HepG2 liver cells, using an MTT assay. Briefly, HepG2 cells were cultured in complete Dulbecco’s modified Eagle’s medium (DMEM; Gibco-Invitrogen, No. 11995-065) prepared by supplementing DMEM with 10% heat inactivated FBS (Gibco-Invitrogen, No. 16000-036), 100 units/mL penicillin, and 100 µg/mL streptomycin. Cell viability was assessed using trypan blue. Ninety-six-well plates were seeded with 2 × 10^4 cells per well and incubated at 37 °C overnight in a humidified 5% CO2 atmosphere. Test compound plates were prepared with an INTEGRA assist plus station and 96-well plates containing 11 duplicate 2-fold serial dilutions of test compound suspended in DMSO. The diluted test compound was then added to the corresponding well preseeded with HepG2 cells. […] After incubation, 20 µL of a 0.1 mg/mL solution of resazurin diluted in PBS was added to each well, and all plates were subsequently incubated for 3–4 h in an incubator. Absorbance was determined with the Molecular Devices SpectraMax plate reader. Three independent experiments, each in duplicate, were performed, and the IC50 values were determined using GraphPad Prism software (Version 10) using the non-linear regression equation (sigmoidal dose-response, variable slope).

[3] = tested on: P. falciparum Dd2, DR1 and DR4; experiment: SYBR Green 72 h drug susceptibility assay against ART-resistant clones; type: cell-based, Plasmodium falciparum
Protocol: Drug susceptibility assay against ART-resistant P. falciparum clones was performed using a SYBR Green-based assay[44],[74]. Synchronized ring stage parasites were cultured for 72 h in the presence of the test drug. The assay was performed in 96-well plates at 2% hematocrit and 0.5% starting parasitemia. Each experiment was conducted in triplicate and repeated with three biological replicates. Parasite growth at 72 h was quantified via SYBR Green I staining. The obtained counts were plotted against the logarithm of the compound concentration, and a curve was fitted with non-linear regression (sigmoidal dose-response/variable slope equation) to determine IC50 (half-maximal inhibitory concentration) values. The data was analyzed using GraphPad Prism software 8.0.

blood-stage P. yoelii = experiment: single-dose cure murine model, oral; type: in vivo, P. yoelii in CF1 mice
Excerpt: Animals were housed at the VAPORHCS in Thoren Maxi-Miser microisolator cages (78 sq. in. floor space) with a maximum density of five females or four males per cage. Cages were maintained on a 12-h light/dark cycle and provided with autoclaved nesting materials (nestlets) for environmental enrichment. All mice had ad libitum access to food and water. Four- to five-week-old female and male outbred CF1 mice (Charles River Laboratories, Raleigh, NC, USA) were randomly assigned to treatment and control groups using a simple randomization procedure (e.g., computer-generated random numbers) to ensure balanced distribution of baseline body weights and starting parasitemia levels across all cohorts. Groups of four mice (n = 4, mean body weight of each group was ~30 g) were infected intravenously with 3.5 × 10^4 P. yoelii (Kenya strain, MRA-428) from a donor animal. Drug administration commenced the day after the animals were inoculated (Day 1). The test drug or the drug combination was dissolved in PEG-400 and administered by oral gavage once daily for 4 successive days in the 4-day suppression model, but only once on Day 1 in the single-dose cure model. Blood was collected via the tail vein with the aid of a syringe needle on Day 5 and then at weekly intervals through Day 28. Blood films were Giemsa-stained and examined microscopically to determine the level of parasitemia. All mice were observed daily to assess clinical signs. Animals with observable parasitemia following the experiments were euthanized; animals cleared of parasitemia from their bloodstream were observed daily with assessment of parasitemia performed weekly until Day 28, at which point, the animal(s) were scored as cured of the infection and then humanely euthanized. All treated mice with a negative smear on Day 28 were considered cured (100% protection). […]

[4] = maximum tolerated dose (MTD) study, single oral dose; type: in vivo, Sprague Dawley rats; details: oral gavage, male and female rats
Protocol: (§1) In vivo toxicology and TK studies in rats were performed at SRI International, using the well-established methods[83]–[85]. Rats were housed in microisolator cages with hardwood chip bedding (Sani-Chips; Envigo Teklad) and maintained on a 12 h light/dark cycle. Environmental conditions were controlled at 20–26 °C (68–79 °F) with 30–70% relative humidity. […] Male and female Sprague Dawley outbred rats were randomly assigned to treatment and control groups using a simple randomization procedure to ensure a balanced distribution of baseline weights across all cohorts. […] For TK studies, blood was collected from animals at 6 time points post dose on Day 1 (0.5, 1, 2, 4, 8, and 24 h) and on Day 7 (0.5, 2, 8, 24, 48, and 96 h). Drug levels were determined in collected plasma samples using bioanalytical method developed at SRI. The plasma drug level data were analyzed using Phoenix WinNonlin (version 8.3) software to perform noncompartmental data analysis.

[5] = 7-day repeat dose toxicology study; type: in vivo, Sprague Dawley rats; details: 25, 100, 400 mg/kg daily oral for 7 days
Protocol: as §1

Row | Structure (SMILES) | CC50 at 4 days [1] | IC50 at 24 h [2] | IC50 ([3]; DR1 (ART-R)) | IC50 ([3]; Dd2) | % survival through Day 28 (blood-stage P. yoelii; TQ 0 + T111 20 mg/kg) | number of mice cured on Day 28 (blood-stage P. yoelii; TQ 0 + T111 20 mg/kg) | parasitemia burden on Day 5 (blood-stage P. yoelii; TQ 0 + T111 20 mg/kg) | % survival through Day 28 (blood-stage P. yoelii; TQ 0 + T111 30 mg/kg) | number of mice cured on Day 28 (blood-stage P. yoelii; TQ 0 + T111 30 mg/kg) | parasitemia burden on Day 5 (blood-stage P. yoelii; TQ 0 + T111 30 mg/kg) | % survival through Day 28 (blood-stage P. yoelii; TQ 0 + T111 40 mg/kg) | parasitemia burden on Day 5 (blood-stage P. yoelii; TQ 0 + T111 40 mg/kg) | number of mice cured on Day 28 (blood-stage P. yoelii; TQ 0 + T111 40 mg/kg, 40 mg/kg) | % survival through Day 28 (blood-stage P. yoelii; TQ 0 + T111 50 mg/kg) | parasitemia burden on Day 5 (blood-stage P. yoelii; TQ 0 + T111 50 mg/kg) | number of mice cured on Day 28 (blood-stage P. yoelii; TQ 0 + T111 50 mg/kg, 50 mg/kg) | single dose MTD [4] | tolerability [5]
1 | O=C1C(O)=C([C@H]2CC[C@H](c3ccc(Cl)cc3)CC2)C(=O)c2ccccc21 [ATV, atovaquone] | 3960 nM | 61200 nM |  |  |  |  |  |  |  |  |  |  |  |  |  |  |  | 
2 | O=c1c2ccc(Oc3ccc(OC(F)(F)F)cc3)cc2[nH]c2cc(Cl)cc(F)c12 [T111] |  |  | 0.11 nM | 0.028 nM | 0% | 0/4 | 0 | 0% | 0/4 | 0 | 25% | 0 | One of four mice and 1/4 | 100% | 0 | all of four mice and single-dose cure in all treated mice and 4/4 | greater than 400 mg/kg | well tolerated, albeit with minor clinical signs

Source: publication PMC13168289, “Potent acridone antimalarial against all three life stages of Plasmodium” (Nature Communications, 2026)
